{"source": "patent US8318771B2", "about": "“Method of treatment of nephrogenic diabetes insipidus” (Universita' Degli Studi di Bari, priority 2010, dated 2012)", "key": {"[1]": {"tested_on": "MCD4 cells", "experiment": "Surface protein biotinylation of apical membrane AQP2 in MCD4 cells (densitometric analysis, FIG. 1)", "assay_type": "cell-based", "details": "control set to 100%", "description": "(§1) In MCD4 cells in the absence of lovastatin in the culture medium (-Lovastatin) and in control (ctr) conditions, the AQP2 is stored in intracellular vesicles. […] The FK mimes the effect of the vasopressin in in vitro experiments. The same phenomenon occurs in the tubule in vivo following release into the circulation of vasopressin. […] The lovastatin therefore mimes the effect of the FK or the stimulation with vasopressin. […] It is possible to quantize the effect of the treatment with lovastatin in terms of accumulation of AQP2 on the apical membrane by means of surface protein biotinylation experiments.\nIn the absence of lovastatin, only a modest amount of AQP2 is expressed on the apical membrane of the MCD4 cells, and therefore biotinylated, in control cells. The treatment with FK determines an increase of approximately 3 times in the amount of AQP2 expressed on the apical membrane."}, "[2]": {"tested_on": "MCD4 cells", "experiment": "AQP2 localisation on the apical membrane of MCD4 renal cells in culture", "assay_type": "cell-based", "description": "The MCD4 cells, which are in culture and derive from main cells of the renal collecting duct, were treated experimentally with lovastatin. In the cell model, as in the renal tubule in vivo, the presence of AQP2 on the membrane depends on the presence of vasopressin.\nas §1\nIn vitro tests performed in MCD4 renal cells indicate that the minimum treatment time with statins able to produce an evident shift of the AQP2 in the cells is 6 hours."}}}
{"compound": "C=C[C@@]1(C)CC(=O)[C@]2(O)[C@@]3(C)[C@@H](O)CCC(C)(C)[C@@H]3[C@H](O)[C@H](OC(C)=O)[C@@]2(C)O1", "note": "[forskolin]", "values": [{"measurement": "increase in the amount of AQP2 expressed on the apical membrane (biotinylated)", "setting": "[1]; treatment with FK", "value": "approximately 3 times"}]}
{"compound": "CC[C@H](C)C(=O)O[C@H]1C[C@@H](C)C=C2C=C[C@H](C)[C@H](CC[C@@H]3C[C@@H](O)CC(=O)O3)[C@H]21", "note": "[lovastatin]", "values": [{"measurement": "increase in the AQP2 on the apical membrane", "setting": "[2]; MCD4 cells, lovastatin in the medium plus treatment with FK", "value": "even more evident"}, {"measurement": "AQP2 accumulation on the apical membrane", "setting": "[2]; MCD4 control (ctr) cells, 5 μM lovastatin in the culture medium for 72 h", "value": "accumulate a considerable amount of AQP2 on the apical membrane"}, {"measurement": "increase of AQP2 present on the apical membrane (biotinylated)", "setting": "[1]; 72 h with lovastatin alone", "value": "comparable to the one obtained by the FK"}]}
{"compound": "CC(C)c1nc(N(C)S(C)(=O)=O)nc(-c2ccc(F)cc2)c1/C=C/[C@@H](O)C[C@@H](O)CC(=O)O", "note": "[rosuvastatin]", "values": [{"measurement": "effect produced by the lovastatin (AQP2 accumulation on the apical membrane) induced by other statins", "setting": "[2]; MCD4 cells, hydrosoluble formulation", "value": "induced also"}]}
